Like-named read-outs stand apart in the source and are kept apart here.
How the values were obtained:
Type in all cases: biochemical
[1] = molecular target: T1, PI3Kδ (Homo sapiens, UniProt O00329); assay: Inhibitory activity to PI3K δ, PI 3-Kinase (human) HTRF Assay kit; conditions: for inhibition at 0.4 µM: 0.4 μM (Table 8); for inhibition at 2 µM: 2 μM (Table 8); for inhibition at 1 µM: 1 μM (Table 7)
T1 construct: purchased Millipore 14-604
Procedure: Study on the inhibitory activity of the compounds of present invention to PI 3κα, PI3κδ and PI3κγ.
(§1) PI 3-Kinase (human) HTRF™ Assay kit (Cat.33-017, Millipore)
For example, 10 μL DTT is added into 500 μL 4× Reaction Buffer, and water is added to 1.5 mL.
The Test compounds are dissolved with DMSO to 1 mM as storage liquid. 2 μL of each of storage liquid is added into 48 μL ddH2O, to obtain the 40 μM compounds solution containing 4% DMSO. After mixing, 3 μL of each of the solution is added into 27 μL 4% DMSO (in ddH2O) to obtain the 4 μM compounds solution. […]
The screening concentration of PI 3k δ kinase: 2 ng/well,
(§2) Kinase is diluted with 2×PIP2 operating fluid, the concentration of kinase operating fluid is 2 times of screening concentration.
The concentration of ATP is 100 μM in 20 μL kinase reaction system.
(§3) Stop A and Stop B are mixed according to the proportion of 3:1, and are placed for 2 hours at room temperature to obtain the stop solution available.
(§4) DM C, DM A and DM B are mixed according to the proportion of 18:1:1, and are placed for 2 hours at room temperature to obtain the detection solution available.

[2] = molecular target: T2, PDGFR β enzyme (Homo sapiens, UniProt P09619); assay: Inhibitory activity to PDGFR β enzyme, HTRF kinEASE TK kit; conditions: read-out: Inhibition rate % (PDGFR β)
T2 construct: purchased Invitrogen P3082
T2 sequence (P09619 33-1106): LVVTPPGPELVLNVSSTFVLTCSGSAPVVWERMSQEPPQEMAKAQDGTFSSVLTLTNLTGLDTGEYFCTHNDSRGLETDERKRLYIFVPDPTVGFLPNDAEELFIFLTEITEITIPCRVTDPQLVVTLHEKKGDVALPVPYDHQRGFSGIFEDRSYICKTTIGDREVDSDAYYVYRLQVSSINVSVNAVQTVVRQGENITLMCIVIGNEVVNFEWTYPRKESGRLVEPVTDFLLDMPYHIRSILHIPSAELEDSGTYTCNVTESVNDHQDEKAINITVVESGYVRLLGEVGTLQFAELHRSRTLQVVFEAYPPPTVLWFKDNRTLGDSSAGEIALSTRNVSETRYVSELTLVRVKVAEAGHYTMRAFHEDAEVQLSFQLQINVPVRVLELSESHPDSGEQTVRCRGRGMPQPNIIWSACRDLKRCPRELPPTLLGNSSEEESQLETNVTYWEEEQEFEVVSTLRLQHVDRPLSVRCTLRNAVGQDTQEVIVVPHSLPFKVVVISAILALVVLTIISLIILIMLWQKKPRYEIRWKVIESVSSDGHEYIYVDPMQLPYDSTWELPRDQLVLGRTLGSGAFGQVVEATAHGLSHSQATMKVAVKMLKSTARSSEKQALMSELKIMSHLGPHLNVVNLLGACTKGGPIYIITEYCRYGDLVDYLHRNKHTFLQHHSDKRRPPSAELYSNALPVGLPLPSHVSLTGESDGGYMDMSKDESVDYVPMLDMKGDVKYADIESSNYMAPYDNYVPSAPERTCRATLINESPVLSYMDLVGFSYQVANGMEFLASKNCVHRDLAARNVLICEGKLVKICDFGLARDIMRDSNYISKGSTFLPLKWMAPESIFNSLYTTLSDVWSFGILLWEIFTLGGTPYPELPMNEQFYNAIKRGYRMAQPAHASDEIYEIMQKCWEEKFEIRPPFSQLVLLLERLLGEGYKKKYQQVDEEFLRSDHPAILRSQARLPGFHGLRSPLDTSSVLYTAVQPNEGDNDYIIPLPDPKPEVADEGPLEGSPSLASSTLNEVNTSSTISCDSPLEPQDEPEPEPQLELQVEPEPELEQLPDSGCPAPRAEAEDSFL
Procedure: HTRF kinEASE TK (Cat.62TK0PEC, Cisbio)
PDGFR β enzyme (Cat.P3082, Invitrogen)
1 mL 1×Kinase Buffer includes 200 μL 5×Enzyme buffer, 5 μL 1M MgCl2, 1 μL 1M DTT, 1 μL 1M MnCl2, 20 μL 2500 nM SEB, 773 μL ddH2O.
TK-Substrate and ATP are diluted to 2.5 times of reaction concentration with 1×PDGFR β Kinase Buffer.
5×PDGFR β enzyme working solution is prepared with 1×PDGFR β kinase buffer.
4×Sa-XL665 working solution is prepared with Detection Buffer.
TK-Ab-Cryptate is diluted 100 times with Detection Buffer to use as working solution.

[3] = molecular target: T3, PI3 K γ (Homo sapiens, UniProt P48736); assay: Inhibitory activity to PI3K γ, PI 3-Kinase (human) HTRF Assay kit; conditions: read-out: Inhibition rate % to PI3 K γ
T3 construct: purchased Biology, Medicilon
T3 sequence (P48736 whole entry): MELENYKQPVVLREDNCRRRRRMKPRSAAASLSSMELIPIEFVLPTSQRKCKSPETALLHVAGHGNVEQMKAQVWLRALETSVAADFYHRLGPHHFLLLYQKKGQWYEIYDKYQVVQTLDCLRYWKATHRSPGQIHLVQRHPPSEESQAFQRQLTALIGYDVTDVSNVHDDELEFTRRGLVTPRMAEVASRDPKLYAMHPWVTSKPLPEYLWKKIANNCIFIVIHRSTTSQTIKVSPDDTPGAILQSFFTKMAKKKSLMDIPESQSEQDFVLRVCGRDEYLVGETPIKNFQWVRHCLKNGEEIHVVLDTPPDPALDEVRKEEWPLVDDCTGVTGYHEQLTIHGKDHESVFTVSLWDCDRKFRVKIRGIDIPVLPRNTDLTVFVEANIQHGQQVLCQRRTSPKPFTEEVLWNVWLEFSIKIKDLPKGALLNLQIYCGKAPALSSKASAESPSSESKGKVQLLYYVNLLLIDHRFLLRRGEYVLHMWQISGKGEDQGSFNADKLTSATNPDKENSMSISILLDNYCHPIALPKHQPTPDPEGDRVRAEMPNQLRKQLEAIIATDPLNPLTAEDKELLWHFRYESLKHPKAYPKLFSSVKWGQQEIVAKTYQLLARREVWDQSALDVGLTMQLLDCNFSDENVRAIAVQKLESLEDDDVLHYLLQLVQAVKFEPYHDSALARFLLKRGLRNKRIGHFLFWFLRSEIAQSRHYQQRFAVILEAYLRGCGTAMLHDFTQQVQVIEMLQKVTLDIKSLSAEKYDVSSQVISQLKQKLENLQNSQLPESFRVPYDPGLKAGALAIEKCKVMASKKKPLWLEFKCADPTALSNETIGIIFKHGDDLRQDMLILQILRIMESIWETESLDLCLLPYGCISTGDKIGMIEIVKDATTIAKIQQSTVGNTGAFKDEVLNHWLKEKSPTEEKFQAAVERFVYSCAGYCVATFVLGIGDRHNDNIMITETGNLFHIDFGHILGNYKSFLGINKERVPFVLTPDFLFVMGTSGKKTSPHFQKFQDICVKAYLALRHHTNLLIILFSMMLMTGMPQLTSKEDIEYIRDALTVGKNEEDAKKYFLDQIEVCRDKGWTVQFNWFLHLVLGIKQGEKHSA
Description: Study on the inhibitory activity of the compounds of present invention to PI 3κα, PI3κδ and PI3κγ. Two or three concentrations of the compounds are selected to preliminary screening to calculate respectively the activity inhibition rate of the compounds of corresponding concentrations to enzyme, then the compounds with better activity are selected by preliminary screening for IC50 test.
as §1
PI 3k γ (Biology, Medicilon)
4× Reaction Buffer (Cat.33-002, Millipore) is diluted with ddH2O to 1.33×, and 1M DTT is added to make the final concentration as 6.67 mM. For example, 10 μL DTT is added into 500 μL 4× Reaction Buffer, and water is added to 1.5 mL.
The Test compounds are dissolved with DMSO to 1 mM as storage liquid. 2 μL of each of storage liquid is added into 48 μL ddH2O, to obtain the 40 μM compounds solution containing 4% DMSO. After mixing, 3 μL of each of the solution is added into 27 μL 4% DMSO (in ddH2O) to obtain the 4 μM compounds solution. 5 μL of each dilute solution is added into 384-well plates, then the final concentration of the compounds in the 20 μL final kinase reaction system is 10 μM and 1 μM respectively contained 1% DMSO. The dilution methods of compounds are similar to the preliminary screening in IC50 test.
2×PIP2 working fluid is prepared with 1.33× reaction buffer to the final concentration of 20 μM.
The screening concentration of PI 3k γ kinase: 80 ng/well,
as §2
10 mM ATP is diluted with 1.33× reaction buffer to 400 μM. The concentration of ATP is 100 μM in 20 μL kinase reaction system.
as §3, §4

[4] = read-out: Inhibition rate % to PI3K delta
[5] = 10 μM (Table 8), read-out: Inhibition rate % to PI3K delta
[6] = read-out: Inhibition rate % to PI3Kδ
[7] = 10 μM (Table 7), read-out: Inhibition rate % to PI3Kδ

T1 sequence (O00329 whole entry): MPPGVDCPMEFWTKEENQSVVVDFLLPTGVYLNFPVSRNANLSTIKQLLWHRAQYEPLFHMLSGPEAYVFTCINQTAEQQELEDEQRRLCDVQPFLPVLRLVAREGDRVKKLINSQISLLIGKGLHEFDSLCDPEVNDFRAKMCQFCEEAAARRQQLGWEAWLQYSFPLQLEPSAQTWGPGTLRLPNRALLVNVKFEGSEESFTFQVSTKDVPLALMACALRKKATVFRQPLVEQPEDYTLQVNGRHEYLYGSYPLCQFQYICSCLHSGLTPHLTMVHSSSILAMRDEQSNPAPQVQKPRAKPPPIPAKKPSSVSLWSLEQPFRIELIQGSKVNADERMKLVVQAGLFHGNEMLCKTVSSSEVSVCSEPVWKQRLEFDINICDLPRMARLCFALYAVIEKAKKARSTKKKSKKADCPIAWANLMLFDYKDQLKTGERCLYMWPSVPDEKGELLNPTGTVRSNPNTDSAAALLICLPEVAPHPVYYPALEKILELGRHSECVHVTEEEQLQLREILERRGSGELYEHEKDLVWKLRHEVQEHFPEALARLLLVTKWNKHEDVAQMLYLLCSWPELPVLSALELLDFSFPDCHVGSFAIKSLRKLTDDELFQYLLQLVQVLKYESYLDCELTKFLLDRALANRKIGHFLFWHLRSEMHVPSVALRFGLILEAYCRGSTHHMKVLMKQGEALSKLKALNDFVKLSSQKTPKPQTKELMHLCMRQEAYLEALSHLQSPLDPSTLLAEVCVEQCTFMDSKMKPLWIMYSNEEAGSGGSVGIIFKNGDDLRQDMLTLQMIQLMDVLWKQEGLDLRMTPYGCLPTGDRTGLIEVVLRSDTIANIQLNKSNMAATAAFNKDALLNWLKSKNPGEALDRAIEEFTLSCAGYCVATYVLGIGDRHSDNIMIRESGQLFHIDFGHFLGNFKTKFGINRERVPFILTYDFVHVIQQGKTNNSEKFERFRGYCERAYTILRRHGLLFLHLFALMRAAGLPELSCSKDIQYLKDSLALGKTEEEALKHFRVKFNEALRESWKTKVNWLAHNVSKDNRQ
T1 sequence (P27986 whole entry partner): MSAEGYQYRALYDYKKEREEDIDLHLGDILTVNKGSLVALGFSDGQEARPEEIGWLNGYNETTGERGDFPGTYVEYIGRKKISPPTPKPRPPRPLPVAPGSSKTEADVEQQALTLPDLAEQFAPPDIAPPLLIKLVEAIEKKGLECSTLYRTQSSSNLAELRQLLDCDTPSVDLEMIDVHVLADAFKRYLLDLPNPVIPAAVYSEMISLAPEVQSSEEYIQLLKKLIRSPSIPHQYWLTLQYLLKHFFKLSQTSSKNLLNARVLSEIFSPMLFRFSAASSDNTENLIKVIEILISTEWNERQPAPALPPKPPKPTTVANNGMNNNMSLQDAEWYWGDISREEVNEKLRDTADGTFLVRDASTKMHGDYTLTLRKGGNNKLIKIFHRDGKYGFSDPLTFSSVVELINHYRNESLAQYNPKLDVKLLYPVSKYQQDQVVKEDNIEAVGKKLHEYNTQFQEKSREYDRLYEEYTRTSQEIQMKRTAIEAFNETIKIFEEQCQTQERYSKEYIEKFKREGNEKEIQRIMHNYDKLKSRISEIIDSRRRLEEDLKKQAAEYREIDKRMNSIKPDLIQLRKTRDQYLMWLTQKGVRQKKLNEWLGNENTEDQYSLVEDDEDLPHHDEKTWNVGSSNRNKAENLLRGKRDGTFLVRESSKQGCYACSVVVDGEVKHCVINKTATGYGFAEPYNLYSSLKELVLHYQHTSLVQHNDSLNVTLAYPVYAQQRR

SMILES | inhibition at 0.4 µM [1, 4] [%] | inhibition at 2 µM [1, 4] [%] | inhibition at 10 µM [1, 5] [%] | inhibition at 1 µM ([2]; 1 μM) [%] | inhibition at 10 µM [2] [%] | inhibition at 1 µM [3] [%] | inhibition at 10 µM [3] [%] | inhibition at 1 µM [1, 6] [%] | inhibition at 10 µM [1, 7] [%] | inhibition at 1 µM [2] [%]
Cc1ccnc2ccc(Nc3nc(NC4CC4)c4nc[nH]c4n3)cc12 [MED1007-113, N6-cyclopropyl-N2-(4-methylquinoline-6-yl)-9H-purine-2,6-diamine dihydrate di-methanesulfonate] | 30 | 37.7 | 68.9 | – | – | – | – | – | – | –
CC(C)Oc1nc(Nc2ccc3nccc(-c4cccc(F)c4)c3c2)nc2[nH]cnc12 [MED1007-135, 4-(3-fluorophenyl)-N-(6-isopropoxy-9H-purine-2-yl) quinoline-6-amine-methanesulfonate] | 27.2 | 59.6 | 83.4 | – | – | – | – | – | – | –
CC(C)Oc1nc(Nc2ccc3nccc(-c4ccc(F)cc4)c3c2)nc2[nH]cnc12 [MED1007-136, 4-(4-fluorophenyl)-N-(6-isopropoxy-9H-purine-2-yl) quinoline-6-amine-methanesulfonate] | 15.7 | 44.8 | 80.5 | – | – | – | – | – | – | –
COC(=O)c1ccc(-c2ccnc3ccc(Nc4nc(NC5CC5)c5nc[nH]c5n4)cc23)cc1 [MED1007-59, 4-(6-(6-(cyclopropylamino)-9H-purine-2-ylamino)quinoline-4-yl) p-methyl benzoate] | – | – | – | 4.39 | 0.93 | 0.83 | 4.97 | 18 | 59 | –
c1ccc(-c2ccnc3ccc(Nc4nc(N5CCOCC5)c5nc[nH]c5n4)cc23)cc1 [MED1007-109, N-(6-morpholine-9H-purine-2-yl)-4-phenyl quinoline-6-amine] | 22.6 | 44 | 91.6 | – | – | – | – | – | – | –
COc1ccc(-c2ccnc3ccc(Nc4nc(O)c5nc[nH]c5n4)cc23)cc1 [MED1007-132, 2-(4-(4-methoxy-phenyl)quinoline-6-ylamino)-9H-purine-6-ol-methanesulfonate] | -0.76 | 8.54 | 55 | – | – | – | – | – | – | –
COc1ccc(-c2ccnc3ccc(Nc4nc(OC(C)C)c5nc[nH]c5n4)cc23)cc1OC [MED1007-137, 4-(3,4-dimethoxyphenyl)-N-(6-isopropoxy-9H-purine-2-yl) quinoline-6-amine-methanesulfonate] | 27.6 | 63.3 | 99.1 | – | – | – | – | – | – | –
c1cc(N2CCNCC2)c2cc(Nc3nc(NC4CC4)c4nc[nH]c4n3)ccc2n1 [MED1007-33, N6-cyclopropyl-N2-(4-(piperazine-1-yl)quinoline-6-yl)-9H-purine-2,6-diamine] | – | – | – | 4.71 | 25.6 | 21 | 20 | 21.4 | 63 | –
c1ccc(Oc2nc(Nc3ccc4nccc(N5CCNCC5)c4c3)nc3[nH]cnc23)cc1 [MED1007-54, N-(6-phenoxy-9H-purine-2-yl)-4-(piperazine-1-yl) quinoline-6-amine] | – | – | – | 7.3 | 43.7 | -6.81 | -4.67 | 13.3 | 42.4 | –
CCc1ccnc2ccc(Nc3nc(NC4CC4)c4nc[nH]c4n3)cc12 [MED1007-114, N6-cyclopropyl-N2-(4-ethylquinoline-6-yl)-9H-purine-2,6 diamine dihydrate di-methanesulfonate] | 28.4 | 49.1 | 78.9 | – | – | – | – | – | – | –
COC(=O)C1(Nc2nc(Nc3ccc4nccc(-c5ccccc5)c4c3)nc3[nH]cnc23)CC1 [MED1007-15, 1-(2-(4-phenylquinoline-6-ylamino)-9H-purine-6-ylamino)cyclopropane carboxylic acid methyl ester] | – | – | – | 31.2 | 93.5 | 10.4 | 19.1 | 1.25 | 8.64 | –
COc1cccc(-c2ccnc3ccc(Nc4nc(NC5CC5)c5nc[nH]c5n4)cc23)c1 [MED1007-61, N6-cyclopropyl-N2-(4-(3-methoxyphenyl)quinoline-6-yl)-9H-purine-2,6-diamine] | – | – | – | 4.72 | 55 | -8.18 | 20.4 | 16.7 | 102 | –
Oc1nc(Nc2ccc3nccc(-c4ccc5c(c4)OCO5)c3c2)nc2[nH]cnc12 [MED1007-139, 2-(4-(benzo[1,3]-dioxole-5-yl)quinoline-6-ylamino)-9H-purine-6-ol-methanesulfonate] | 4.29 | 15 | 20.1 | – | – | – | – | – | – | –
CN[C@@H]1C[C@H]2O[C@@](C)([C@@H]1OC)n1c3ccccc3c3c4c(c5c6ccccc6n2c5c31)C(=O)NC4 [Staurosporine, reference compound] | – | – | – | – | – | – | – | – | – | 99.8
Oc1nc(Nc2ccc3nccc(-c4ccccc4)c3c2)nc2[nH]cnc12 [MED1007-110, 2-(4-phenylquinoline-6-ylamino)-9H-purine-6-ol] | 6.26 | 2.94 | 12.6 | – | – | – | – | – | – | –
CC(C)Oc1nc(Nc2ccc3nccc(-c4ccc5c(c4)OCO5)c3c2)nc2[nH]cnc12 [MED1007-133, 4-(benzo[1,3]-dioxole-5-yl)-N-(6-isopropoxy-9H-purine-2-yl) quinoline-6-amine-methanesulfonate] | 20.8 | 69 | 83.4 | – | – | – | – | – | – | –
CC(C)Oc1nc(Nc2ccc3ncccc3c2)nc2[nH]cnc12 [MED1007-34, N-(6-isopropoxy-9H-purine-2-yl) quinoline-6-amine] | – | – | – | 53.8 | 98.8 | 24.4 | 57.3 | 40.2 | 69.8 | –
COC(=O)c1cccc(-c2ccnc3ccc(Nc4nc(NC5CC5)c5nc[nH]c5n4)cc23)c1 [MED1007-60, 4-(6-(6-(cyclopropylamino)-9H-purine-2-ylamino)quinoline-4-yl) m-methyl benzoate] | – | – | – | -0.63 | 10.6 | -2.59 | 4.45 | -2.33 | 34.1 | –
Fc1cccc(-c2ccnc3ccc(Nc4nc(NC5CC5)c5nc[nH]c5n4)cc23)c1 [MED1007-64, N6-cyclopropyl-N2-(4-(3-fluorophenyl)quinoline-6-yl)-9H-purine-2,6-diamine] | – | – | – | -3.26 | 20.1 | -4.23 | 15.9 | 14.1 | 88.7 | –
c1cc(N2CCOCC2)c2cc(Nc3nc(NC4CC4)c4nc[nH]c4n3)ccc2n1 [MED1007-32, N6-cyclopropyl-N2-(4-morpholinequinoline-6-yl)-9H-purine-2,6-diamine] | – | – | – | 9.16 | 24.5 | -13.7 | 4.28 | 31 | 42.1 | –

From US9718823B2, “2, 6-Di-nitrogen-containing substituted purine derivative, and preparation method, pharmaceutical composition and use thereof” (Zhejiang Medicine Co., Ltd. Xinchang Pharmaceutical Factory, priority 2013, dated 2017)
